Reference: ChEMBL document CHEMBL3232961, “Synthesis and evaluation of cyclohexane carboxylic acid head group containing isoxazole and thiazole analogs as DGAT1 inhibitors” (Eur J Med Chem, 2014)

Experiments:
Mus musculus = experiment: Reduction of plasma triglyceride AUC (0 to 4 hrs) in fasted Swiss mouse at 3 mg/kg, po administered 1 hr followed by bolus dose of olive oil by acute fat tolerance test relative to vehicle-treated control; format: functional; parameters: scale not given: the % may be the effect or the level left
[1] = biological target: T1, Diacylglycerol O-acyltransferase 1 (Homo sapiens, UniProt O75907); experiment: Inhibition of human DGAT1 using 1,2-diacylglycerol/[14C]-oleoyl CoA as substrate assessed as [14C]-triglyceride formation after 10 mins by scintillation counting analysis
T1 sequence (O75907 whole entry): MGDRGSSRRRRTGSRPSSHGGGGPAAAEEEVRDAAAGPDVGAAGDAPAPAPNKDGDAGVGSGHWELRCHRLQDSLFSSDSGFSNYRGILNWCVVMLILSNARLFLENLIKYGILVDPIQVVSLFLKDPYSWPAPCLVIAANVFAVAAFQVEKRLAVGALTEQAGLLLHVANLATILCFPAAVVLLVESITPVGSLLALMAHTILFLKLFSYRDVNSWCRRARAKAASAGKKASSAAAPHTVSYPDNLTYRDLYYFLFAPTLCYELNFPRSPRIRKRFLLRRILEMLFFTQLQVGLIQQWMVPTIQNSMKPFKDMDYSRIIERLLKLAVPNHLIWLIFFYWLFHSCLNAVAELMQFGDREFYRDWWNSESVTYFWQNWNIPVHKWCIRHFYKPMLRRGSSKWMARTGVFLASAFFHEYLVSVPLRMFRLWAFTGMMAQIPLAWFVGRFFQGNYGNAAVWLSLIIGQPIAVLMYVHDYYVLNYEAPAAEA

IC50 [1] | SMILES | Activity (Mus musculus)
– | O=C(Nc1ccc(-c2cnc(C(=O)N[C@H]3CC[C@H](C(=O)O)CC3)s2)cc1)Nc1ccccc1F | 112%
114 nM | O=C(Nc1ccc(C2CCN(C(=O)[C@H]3CC[C@H](C(=O)O)CC3)CC2)cc1)c1nc(-c2ccccc2)oc1C(F)(F)F | 89%
